This note sets out measurements from patent publication US20110178053A1, “AZACARBOLINE DERIVATIVES, PREPARATION METHOD THEREOF AND THERAPEUTIC USE OF SAME” (SANOFI-AVENTIS, priority 2008, published 2011).

For one assay, the target named is T1, Pim-3 (Homo sapiens, UniProt Q86V86).
T1 construct: His6-labelled recombinant full-length human Pim-1, Pim-2 or Pim-3 protein; His6; made in house
Put plainly: TR-FRET assay, Pim-3 kinase (phosphorylation of Bad Ser112). The settings on record: TR-FRET; ATP 40 μM; read-out: IC50 Pim3. Format: biochemical. The method in brief:
(§1)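 Recombinant His6-tagged full-length human Pim-1, Pim-2 or Pim-3 phosphorylates His6-tagged full-length human Bad at 40 μM ATP (apparent KM). Phospho-Ser112 is detected by TR-FRET between Eu-labelled anti-phosphoBad and APC-labelled anti-His6 (665/615 nm ratio); 10-point duplicate series, top typically 30 μM, IC50 from 4-parameter logistic fit.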
For orientation: TR-FRET usually uses a lanthanide donor and a delayed reading to cut background.

A further assay concerns MV4-11. Description: Cell viability assay (CellTiter-Blue), MV4-11. Format: cell-based. The settings on record: Homo sapiens. The source says: (§2) The representative compounds of the invention are also screened as regards their effects on cell proliferation and viability using a variety of human tumour cell lines, which are representative of various pathological indications. These cell lines include: • Models of haematological cancers: • TF-1 (acute myelogenic leukaemia; AML M6 at the time of diagnosis); • KG-1 (AML; erythroleukaemia evolving into AML); • KG-1a (AML; sub-clone derived from immature KG-1); • EOL-1 (AML; eosinophilic leukaemia); • PL-21 (AML; M3); • ML-2 (AML; T-NHL evolving into T-ALL evolving into AML M4); • HL-60 (AML, M3); • Kasumi-1 (AML); • GDM-1 (AML); • K-562 (CML—chronic myelogenic leukaemia; blastic crisis); • JURL-MK1 (CML; blastic crisis); • DND-41 (T-ALL—-cell acute lymphoblastic leukaemia); • Jurkat (T-ALL); NALM-6 (B-ALL—B-cell ALL); • CEM (ALL; lymphosarcoma evolving into ALL); • Jeko-1 (B-NHL—B-cell non-Hodgkin lymphoma; mantle-cell lymphoma derived from a variant with large cells as a leukaemic transformation); • WSU-DLCL2 (B-NHL; large B-cell diffuse lymphoma); • RL (B-NHL; undifferentiated diffuse); • OCI-Ly10 (B-NHL); • DoHH-2 (B-NHL); • RPMI-8226 (MM—multiple myeloma); • JVM-2 (B-CLL—B-cell chronic lymphocytic leukaemia); and • JVM-3 (B-CLL) • MV4-11 (AML) • MOLM13 (AML). • Solid tumour models: • HCT-116 (bowel cancer); • HT-29 (bowel cancer); • HC-15 (bowel cancer); • H460 (lung cancer; non-small-cell lung cancer); • A375 (melanoma); • B16F10 (melanoma); • MDA-A1 (breast cancer); • MDA-MB231 (breast cancer); • MDA-MB231 adr (breast cancer); • PANC-1 (pancreatic cancer); and • PC-3 (prostate cancer).
(§3) In order to measure the viability, the tumour cells are incubated in a 96-well or 384-well format for 48, 72 or 96 hours, preferably 72 hours, with a compound of the invention at dilutions of a factor 3 with, in general, nine doses in total, the highest dose being equal to 10 μM or 30 μM. The cell viability is evaluated by adding CellTiter-Blue® (Promega, Madison, Wis., United States) for 4 hours and end-point readings are taken using a SpectraMax Genmini EM (Molecular Devices, Sunnyvale, Calif., United States). The CellTiter-Blue® cell viability assay measures the ability of the cells in culture to reduce resazurin to resorufin, the fluorescence signal intensity being directly proportional to the number of live cells.
(In general: The colour change of resazurin is a common sign of viable cells or microbes.)

In the next assay the target is T2, Pim-2 (Homo sapiens, UniProt Q9P1W9).
T2 construct: His6-labelled recombinant full-length human Pim-1, Pim-2 or Pim-3 protein; His6; made in house
Put plainly: TR-FRET assay, Pim-2 kinase (phosphorylation of Bad Ser112). Format: biochemical. The settings on record: TR-FRET; ATP 40 μM; read-out: IC50 Pim2. The essentials:
as §1

The next assay has as its target T3, Pim-1 (Homo sapiens, UniProt P11309).
T3 construct: His6-labelled recombinant full-length human Pim-1, Pim-2 or Pim-3 protein; His6; made in house
Put plainly: TR-FRET assay, Pim-1 kinase (phosphorylation of Bad Ser112). Format: biochemical. The settings on record: TR-FRET; ATP 40 μM; read-out: IC50 Pim1. The essentials: as §1

A further assay has as its system MOLM-13. Description: Cell viability assay (CellTiter-Blue), MOLM-13. Format: cell-based. The settings on record: Homo sapiens.
Excerpt: as §2, §3

A further assay has as its system EOL-1. Description: Cell viability assay (CellTiter-Blue), EOL-1. The class given is cell-based. As to conditions: Homo sapiens, EOL1, read-out: EC50 EOL-1 μM (lymphoma).
Excerpt: as §2, §3

Another assay has as its target PLK1 (Homo sapiens, UniProt P53350). Description: PLK1 biochemical inhibition.
Where [1] appears, read: MV4-11 cells, cell proliferation/viability, read-out: IC50 MV4-11 μM (myeloma).
[2] abbreviates: MOLM-13 cells, cell proliferation/viability, read-out: IC50 MOLM-13 μM (myeloma).
Setting [3] is: EOL-1 cells, cell proliferation/viability.

Where two headings read alike, the source gives them in different places.

PLK1, sequence (P53350 whole entry, species assumed): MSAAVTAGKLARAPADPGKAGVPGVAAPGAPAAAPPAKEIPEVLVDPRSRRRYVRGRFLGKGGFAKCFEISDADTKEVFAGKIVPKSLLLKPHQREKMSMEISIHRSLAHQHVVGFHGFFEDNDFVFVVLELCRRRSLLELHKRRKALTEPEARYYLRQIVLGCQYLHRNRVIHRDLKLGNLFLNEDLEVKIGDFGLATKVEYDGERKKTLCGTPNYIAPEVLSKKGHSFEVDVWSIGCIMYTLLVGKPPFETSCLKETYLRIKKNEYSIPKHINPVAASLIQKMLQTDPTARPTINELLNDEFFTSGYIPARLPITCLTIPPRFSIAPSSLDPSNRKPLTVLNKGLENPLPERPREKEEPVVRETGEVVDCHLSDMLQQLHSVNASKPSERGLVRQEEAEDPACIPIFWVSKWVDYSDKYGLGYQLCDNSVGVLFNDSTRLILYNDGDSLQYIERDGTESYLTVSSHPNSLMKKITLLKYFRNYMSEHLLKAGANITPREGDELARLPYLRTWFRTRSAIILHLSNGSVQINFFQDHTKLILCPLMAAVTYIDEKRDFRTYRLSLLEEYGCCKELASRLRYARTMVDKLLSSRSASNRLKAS
T3 sequence (P11309 whole entry): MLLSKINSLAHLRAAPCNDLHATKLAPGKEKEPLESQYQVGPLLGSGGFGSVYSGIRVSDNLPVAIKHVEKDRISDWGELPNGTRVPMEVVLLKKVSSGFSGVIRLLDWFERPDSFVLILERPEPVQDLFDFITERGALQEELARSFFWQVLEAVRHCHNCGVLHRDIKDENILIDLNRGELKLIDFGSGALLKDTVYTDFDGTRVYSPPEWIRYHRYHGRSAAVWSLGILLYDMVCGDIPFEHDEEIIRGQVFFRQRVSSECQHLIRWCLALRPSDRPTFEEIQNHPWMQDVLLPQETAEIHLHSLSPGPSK
T2 sequence (Q9P1W9 whole entry): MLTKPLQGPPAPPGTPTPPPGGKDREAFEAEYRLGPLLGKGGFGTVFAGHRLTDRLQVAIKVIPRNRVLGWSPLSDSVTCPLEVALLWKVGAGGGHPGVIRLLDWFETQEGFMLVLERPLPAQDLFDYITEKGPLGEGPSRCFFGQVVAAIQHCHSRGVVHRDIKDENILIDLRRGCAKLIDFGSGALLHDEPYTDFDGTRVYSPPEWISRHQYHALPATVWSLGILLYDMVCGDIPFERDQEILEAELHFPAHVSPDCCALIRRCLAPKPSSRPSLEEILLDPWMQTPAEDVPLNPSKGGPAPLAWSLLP

The IC50 is the concentration that inhibits the measured activity by half. By EC50 is commonly meant the concentration giving half of the maximal effect. In the case of `COc1cnc2[nH]c3cnc(-c4cccnc4)cc3c2c1` [Example 7, 3-methoxy-6-(pyrid-3-yl)-9H-pyrrolo-[2,3-b:5,4-c′]-dipyridine], the IC50 at Pim-3 was in the range of 1 to 100 nM; in the assay with MV4-11 (setting [1]) it was 100 to 1000 nM; on Pim-2, 100 to 1000 nM; on Pim-1 it was 1 to 100 nM; in the assay on MOLM-13 (setting [2]) it was 100 to 1000 nM; at PLK1 it was 100 to 1000 nM. For the same molecule, in the assay on EOL-1 (setting [3]), the EC50 lay within 100 to 1000 nM.

As to `COc1ccnc2[nH]c3cnc(-c4cccnc4)cc3c12` [Example 8, 4-methoxy-6-(pyrid-3-yl)-9H-pyrrolo-[2,3-b:5,4-c′]-dipyridine], the IC50 at Pim-3 is 100 to 1000 nM; with MV4-11 (setting [1]) it was 100 to 1000 nM; at Pim-2, 1000 to 5000 nM; at Pim-1, 1 to 100 nM; in the assay with MOLM-13 (setting [2]), 100 to 1000 nM; at PLK1, 100 to 1000 nM. In addition, the EC50 in the assay with EOL-1 (setting [3]) was 100 to 1000 nM.

For `Fc1cnc2[nH]c3cnc(-c4cccnc4)cc3c2c1N1CCOCC1` [Example 33, 3-fluoro-4-(morpholin-4-yl)-6-(pyrid-3-yl)-9H-pyrrolo[2,3-b:5,4-c′]-dipyridine], the IC50 on Pim-3 was in the range of 100 to 1000 nM; in the assay on MV4-11 (setting [1]) it was 1000 to 5000 nM; at Pim-2 it was 100 to 1000 nM; on Pim-1, 1 to 100 nM; with MOLM-13 (setting [2]), 100 to 1000 nM. For the same molecule, the EC50 with EOL-1 (setting [3]) lay in the range of 100 to 1000 nM.

`CN(C)CCCN(c1ccc(-c2c(F)cnc3[nH]c4cnc(-c5cccnc5)cc4c23)cc1)S(C)(=O)=O` [Example 49, N-[3-(dimethylamino)propyl]-N-{4-[3-fluoro-6-(pyrid-3-yl)-9H-pyrrolo[2,3-b:5,4-c′]-dipyrid-4-yl]phenyl}methanesulfonamide]: the IC50 at Pim-3 fell in the range of 1 to 100 nM; in the assay with MV4-11 (setting [1]), 1 to 100 nM; on Pim-2, 1 to 100 nM; at Pim-1, 1 to 100 nM; against PLK1, 100 to 1000 nM. In addition, the EC50 with EOL-1 (setting [3]) fell in the range of 1 to 100 nM.

For `CCN1CCN(C(C)(C)C#Cc2c(F)cnc3[nH]c4cnc(-c5cccnc5)cc4c23)CC1` [Example 92, 4-[3-(4-ethylpiperazin-1-yl)-3-methylbut-1-yn-1-yl]-3-fluoro-6-(pyrid-3-yl)-9H-pyrrolo-[2,3-b:5,4-c′]dipyridine], the IC50 lay within 1 to 100 nM on Pim-3; 1000 to 5000 nM with MV4-11 (setting [1]); 1000 to 5000 nM on Pim-2; 1 to 100 nM at Pim-1; 100 to 1000 nM on PLK1. The EC50 in the assay with EOL-1 (setting [3]) fell in the range of 100 to 1000 nM.

As for `CN(C)CCCOc1ccc(-c2c(F)cnc3[nH]c4cnc(-c5cccnc5)cc4c23)cc1` [Example 94, 3-{-4-[3-fluoro-6-(pyrid-3-yl)-9H-pyrrolo[2,3-b:5,4-c′]dipyrid-4-yl]phenoxy}-N,N-dimethylpropan-1-amine], the IC50 on Pim-3 lay in the range of 1 to 100 nM; in the assay with MV4-11 (MV4-11, read-out: IC50 MV4-11 μM (myeloma)) it was 1 to 100 nM; at Pim-2, 100 to 1000 nM; at Pim-1 it was 1 to 100 nM; with MOLM-13 (MOLM-13, read-out: IC50 MOLM-13 μM (myeloma)) it was 100 to 1000 nM; against PLK1, 1 to 100 nM. Moreover, the EC50 in the assay on EOL-1 is 1 to 100 nM.

With `CC(C)N1CCN(c2ccc(-c3cnc4[nH]c5cnc(-c6cccnc6)cc5c4c3)cc2)CC1` [Example 122, 3-{4-[4-(propan-2-yl)piperazin-1-yl]phenyl}-6-(pyrid-3-yl)-9H-pyrrolo[2,3-b:5,4-c′]-dipyridine], the IC50 on Pim-3 fell in the range of 1 to 100 nM; in the assay with MV4-11 (setting [1]) it was 1 to 100 nM; at Pim-2, 100 to 1000 nM; at Pim-1, 1 to 100 nM; on PLK1 it was 1000 to 5000 nM. Further, in the assay on EOL-1 (setting [3]), the EC50 is 1 to 100 nM.

As for `CN1CCN(CCCn2cc(-c3cnc4[nH]c5cnc(-c6cccnc6)cc5c4c3)cn2)CC1` [Example 124, 3-{1-[3-(4-methyl-piperazin-1-yl)propyl]-1H-pyrazol-4-yl}-6-(pyrid-3-yl)-9H-pyrrolo[2,3-b:5,4-c′]-dipyridine], the IC50 lay within 1 to 100 nM on Pim-3, 100 to 1000 nM on Pim-2, 1 to 100 nM at Pim-1 and 100 to 1000 nM against PLK1.

For the molecule `c1cncc(-c2cc3c(cn2)[nH]c2ncc(-c4cn[nH]c4)cc23)c1` [Example 126, 3-(1H-pyrazol-4-yl)-6-(pyrid-3-yl)-9H-pyrrolo-[2,3-b:5,4-c′]-dipyridine], the IC50 on Pim-3 is 100 to 1000 nM; at Pim-2, above 5000 nM; at Pim-1, 1 to 100 nM; against PLK1, 1000 to 5000 nM.

Take `CCN(CC)CCCn1cc(-c2cnc3[nH]c4cnc(-c5cccnc5)cc4c3c2)cn1` [Example 127, N,N-diethyl-3-{4-[6-(pyrid-3-yl)-9H-pyrrolo-[2,3-b:5,4-c′]-dipyrid-3-yl]-1H-pyrazol-1-yl}-propan-l-amine]: the IC50 at Pim-3 fell in the range of 1 to 100 nM; in the assay on MV4-11 (setting [1]), 1 to 100 nM; at Pim-2 it was 100 to 1000 nM; on Pim-1, 1 to 100 nM; at PLK1 it was 1000 to 5000 nM. The EC50 with EOL-1 (setting [3]) fell in the range of 1 to 100 nM.

`CCN1CCCC1Cn1cc(-c2cnc3[nH]c4cnc(-c5cccnc5)cc4c3c2)cn1` (stereo not shown) [Example 128, 3-{1-[(1-ethylpyrrolidin-2-yl)methyl]-1H-pyrazol-4-yl}-6-(pyrid-3-yl)-9H-pyrrolo[2,3-b:5,4-c′]dipyridine]: the IC50 in the assay with MV4-11 (setting [1]) and in the assay with MOLM-13 (setting [2]) was 1 to 100 nM each time. Besides, the concentration for a half-maximal effect (EC50) in the assay on EOL-1 (setting [3]) lay within 1 to 100 nM.

As to `c1cncc(-c2cc3c(cn2)[nH]c2ncc(-c4ccc(N5CCNCC5)cc4)cc23)c1` [Example 130, 3-[4-(piperazin-1-yl)phenyl]-6-(pyrid-3-yl)-9H-pyrrolo[2,3-b:5,4-c′]dipyridine], the IC50 at Pim-3 was in the range of 1 to 100 nM; with MV4-11 (setting [1]) it was 1 to 100 nM; at Pim-2, 100 to 1000 nM; at Pim-1, 1 to 100 nM; with MOLM-13 (setting [2]), 1 to 100 nM. In the assay on EOL-1 (setting [3]), the EC50 was 1 to 100 nM.

Consider `COc1cnc2[nH]c3cnc(-c4cnn(C)c4)cc3c2c1` [Example 163, 3-methoxy-6-(1-methyl-1H-pyrazol-4-yl)-9H-pyrrolo[2,3-b:5,4-c′]dipyridine], for which the IC50 at Pim-3 fell in the range of 1 to 100 nM; with MV4-11 (setting [1]), 100 to 1000 nM; on Pim-2 it was 100 to 1000 nM; on Pim-1, 1 to 100 nM; at PLK1, 1000 to 5000 nM. Also, in the assay with EOL-1 (setting [3]), the EC50 lay within 100 to 1000 nM.

Turning to `COc1cnc2[nH]c3cnc(-c4cnn(CC(=O)NCCN(C)C)c4)cc3c2c1` [Example 165, N-[2-(dimethylamino)ethyl]-2-[4-(3-methoxy-9H-pyrrolo[2,3-b:5,4-c′]dipyrid-6-yl)-1H-pyrazol-1-yl]acetamide], the IC50 was 100 to 1000 nM at Pim-3, above 5000 nM on Pim-2, 100 to 1000 nM on Pim-1 and above 5000 nM against PLK1.

Regarding `COc1cnc2[nH]c3cnc(-c4cnn(CCCCCNC(=O)OC(C)(C)C)c4)cc3c2c1` [Example 167, 2-methyl-2-propyl {5-[4-(3-methoxy-9H-pyrrolo[2,3-b:5,4-c′]dipyrid-6-yl)-1H-pyrazol-1-yl]pentyl}carbamate], the IC50 on Pim-3 was 100 to 1000 nM; at Pim-2, 1000 to 5000 nM; at Pim-1 it was 100 to 1000 nM; on PLK1, above 5000 nM.
